ChEMBL document CHEMBL4376804, “Review of Transient Receptor Potential Canonical (TRPC5) Channel Modulators and Diseases” (J Med Chem, 2019)

biological target: T1, Short transient receptor potential channel 6 (Mus musculus, UniProt Q61143); experiment: Inhibition of mouse TRPC6 expressed in HEK293 cells co-expressing M5 receptor assessed as reduction in carbachol-induced membrane potential by FMP-2 dye based assay; type: cell-based
T1 sequence (Q61143 whole entry): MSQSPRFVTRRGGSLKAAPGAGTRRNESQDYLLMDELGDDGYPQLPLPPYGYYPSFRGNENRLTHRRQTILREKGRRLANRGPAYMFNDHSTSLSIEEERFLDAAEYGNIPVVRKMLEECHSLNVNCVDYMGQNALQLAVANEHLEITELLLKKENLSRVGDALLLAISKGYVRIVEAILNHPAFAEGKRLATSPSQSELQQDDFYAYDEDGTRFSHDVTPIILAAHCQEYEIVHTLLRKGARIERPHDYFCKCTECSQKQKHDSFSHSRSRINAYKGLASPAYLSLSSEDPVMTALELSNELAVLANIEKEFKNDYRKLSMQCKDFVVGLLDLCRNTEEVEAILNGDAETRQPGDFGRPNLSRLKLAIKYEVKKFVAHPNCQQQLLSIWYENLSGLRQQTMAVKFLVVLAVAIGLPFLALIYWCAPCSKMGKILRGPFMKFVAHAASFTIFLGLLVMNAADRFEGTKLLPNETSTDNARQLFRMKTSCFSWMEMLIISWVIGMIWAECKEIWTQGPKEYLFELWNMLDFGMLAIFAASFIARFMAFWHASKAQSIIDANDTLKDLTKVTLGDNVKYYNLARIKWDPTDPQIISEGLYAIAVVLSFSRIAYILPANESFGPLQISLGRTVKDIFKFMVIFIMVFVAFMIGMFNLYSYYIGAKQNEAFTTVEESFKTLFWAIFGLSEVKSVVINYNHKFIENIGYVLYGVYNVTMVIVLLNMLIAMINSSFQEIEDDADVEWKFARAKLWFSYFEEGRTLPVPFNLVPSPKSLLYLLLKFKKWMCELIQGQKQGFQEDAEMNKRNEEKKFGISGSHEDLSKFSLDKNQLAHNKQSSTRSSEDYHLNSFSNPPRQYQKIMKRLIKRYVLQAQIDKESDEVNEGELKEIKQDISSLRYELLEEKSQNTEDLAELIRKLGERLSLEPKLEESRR

Structure (SMILES) | IC50 [µM]
c1ccc2[nH]c(NC34CC5CC(CC(C5)C3)C4)nc2c1 | > 100
CC1CCN(c2nc3cc(Cl)ccc3[nH]2)CC1 | 57.1
CC1CCN(c2nc3ccccc3[nH]2)CC1 | 63.8
CC1CCCCN1c1nc2ccccc2[nH]1 (stereo not drawn) | > 100

The next lines start with the values.

IC50 [µM] | Structure (SMILES)
> 100 | c1ccc2[nH]c(N3CCCC3)nc2c1
> 100 | c1ccc2[nH]c(N3CCCCC3)nc2c1

biological target: T2, Short transient receptor potential channel 3 (Homo sapiens, UniProt Q13507); experiment: Inhibition of human TRPC3 expressed in HEK293 cells assessed as reduction in carbachol-induced membrane potential by FMP-2 dye based assay; type: cell-based
T2 sequence (Q13507 whole entry): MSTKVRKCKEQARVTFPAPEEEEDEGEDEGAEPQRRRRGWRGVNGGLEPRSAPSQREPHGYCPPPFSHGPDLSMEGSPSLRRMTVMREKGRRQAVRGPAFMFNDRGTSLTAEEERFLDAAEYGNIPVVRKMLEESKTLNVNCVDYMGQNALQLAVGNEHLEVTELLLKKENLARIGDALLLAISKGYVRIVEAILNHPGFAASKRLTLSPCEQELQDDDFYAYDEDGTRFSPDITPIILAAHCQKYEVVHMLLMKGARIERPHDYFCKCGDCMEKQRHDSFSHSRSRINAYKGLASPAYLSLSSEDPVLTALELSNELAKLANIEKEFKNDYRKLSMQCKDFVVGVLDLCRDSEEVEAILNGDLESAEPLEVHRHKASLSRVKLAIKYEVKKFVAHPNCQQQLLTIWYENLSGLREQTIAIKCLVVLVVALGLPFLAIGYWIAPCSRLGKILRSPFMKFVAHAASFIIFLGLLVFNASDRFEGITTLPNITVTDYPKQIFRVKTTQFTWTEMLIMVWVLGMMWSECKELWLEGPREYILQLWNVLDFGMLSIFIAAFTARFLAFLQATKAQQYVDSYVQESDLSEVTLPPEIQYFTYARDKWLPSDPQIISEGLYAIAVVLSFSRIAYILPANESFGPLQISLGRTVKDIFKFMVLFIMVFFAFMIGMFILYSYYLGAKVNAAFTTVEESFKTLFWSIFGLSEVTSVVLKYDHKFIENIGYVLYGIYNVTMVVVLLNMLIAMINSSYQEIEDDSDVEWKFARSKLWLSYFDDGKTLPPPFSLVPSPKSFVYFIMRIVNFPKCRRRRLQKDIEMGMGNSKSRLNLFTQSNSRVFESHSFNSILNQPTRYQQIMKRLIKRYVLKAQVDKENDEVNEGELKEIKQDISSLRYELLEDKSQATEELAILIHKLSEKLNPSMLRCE

Structure (SMILES) | IC50 [µM]
c1ccc2[nH]c(NC34CC5CC(CC(C5)C3)C4)nc2c1 | > 100
CC1CCN(c2nc3cc(Cl)ccc3[nH]2)CC1 | 30.4
CC1CCN(c2nc3ccccc3[nH]2)CC1 | 19.3
CC1CCCCN1c1nc2ccccc2[nH]1 (stereo not drawn) | > 100

Other lines, results leading:

IC50 [µM] | Structure (SMILES)
> 100 | c1ccc2[nH]c(N3CCCC3)nc2c1
> 100 | c1ccc2[nH]c(N3CCCCC3)nc2c1

biological target: T3, Short transient receptor potential channel 5 (Mus musculus, UniProt Q9QX29); experiment: Inhibition of mouse TRPC5 expressed in HEK293 cells co-expressing mu-opioid receptor assessed as reduction in DAMGO-induced membrane potential by FMP-2 dye based assay; type: cell-based
T3 sequence (Q9QX29 whole entry): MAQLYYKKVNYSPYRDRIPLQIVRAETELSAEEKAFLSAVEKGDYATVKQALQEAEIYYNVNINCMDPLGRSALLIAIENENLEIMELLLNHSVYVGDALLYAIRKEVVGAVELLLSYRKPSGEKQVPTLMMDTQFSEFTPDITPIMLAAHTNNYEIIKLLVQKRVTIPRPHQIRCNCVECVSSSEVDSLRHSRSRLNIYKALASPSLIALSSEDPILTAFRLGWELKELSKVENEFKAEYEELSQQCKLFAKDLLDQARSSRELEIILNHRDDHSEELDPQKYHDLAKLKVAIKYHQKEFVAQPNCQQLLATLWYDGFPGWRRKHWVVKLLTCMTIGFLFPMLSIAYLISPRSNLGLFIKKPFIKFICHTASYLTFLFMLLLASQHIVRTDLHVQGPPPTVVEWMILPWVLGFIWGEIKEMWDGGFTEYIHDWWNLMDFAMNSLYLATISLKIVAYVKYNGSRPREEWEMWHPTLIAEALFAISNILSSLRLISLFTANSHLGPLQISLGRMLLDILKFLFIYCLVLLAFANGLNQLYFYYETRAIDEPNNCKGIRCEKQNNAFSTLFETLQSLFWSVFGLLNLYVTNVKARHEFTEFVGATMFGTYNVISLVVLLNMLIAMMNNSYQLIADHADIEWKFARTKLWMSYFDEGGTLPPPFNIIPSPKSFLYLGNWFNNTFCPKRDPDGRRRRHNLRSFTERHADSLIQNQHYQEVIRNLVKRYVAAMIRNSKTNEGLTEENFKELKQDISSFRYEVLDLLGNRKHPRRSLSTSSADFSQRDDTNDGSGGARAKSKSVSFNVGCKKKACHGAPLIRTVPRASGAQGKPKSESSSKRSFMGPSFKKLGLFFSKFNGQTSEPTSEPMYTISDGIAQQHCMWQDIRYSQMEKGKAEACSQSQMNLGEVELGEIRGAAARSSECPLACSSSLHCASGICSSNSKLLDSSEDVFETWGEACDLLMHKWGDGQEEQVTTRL

Structure (SMILES) | IC50 [µM]
c1ccc2[nH]c(NC34CC5CC(CC(C5)C3)C4)nc2c1 | 12.4
CC1CCN(c2nc3cc(Cl)ccc3[nH]2)CC1 | 3.1
CC1CCN(c2nc3ccccc3[nH]2)CC1 | 6.6
CC1CCCCN1c1nc2ccccc2[nH]1 (stereo not drawn) | 3.5

Further lines, results first:

IC50 [µM] | Structure (SMILES)
8 | c1ccc2[nH]c(N3CCCC3)nc2c1
11.1 | c1ccc2[nH]c(N3CCCCC3)nc2c1
